Like-named read-outs stand apart in the source and are kept apart here.
Legend:
HepG2 cells [1] = details: cited from earlier work
[2] = system: THLE or HepG2 cells, isolated mitochondria, BSEP; details: cited from earlier work
[3] = Plasma free fraction (fu) and unbound Cmax (Cmax,u); type: in vitro ADME, human; details: human
Procedure: The prediction of DILI severity was evaluated further using the 3D combined HCI assays using plasma-free fraction. The majority of fu values were obtained from literature, when unavailable in-house prediction was utilised. Unbound plasma Cmax concentrations (Cmax,u) were derived by multiplying total plasma Cmax with the corresponding free fraction (fu) for each compound.

hu-MPCC = details: cited from earlier work
HepaRG spheroids [4] = system: HepaRG spheroids
hLiMTs [5] = details: cited from earlier work
HepaRG spheroids [6] = experiment: Combined HCI (HCS) and cellular ATP 3D assay in HepaRG spheroids; details: Homo sapiens, HepaRG
hLiMTs [7] = system: hLiMTs
[8] = cited from earlier work
PHH [9] = details: cited from earlier work
[10] = in vivo; cited from earlier work
human hepatocytes = details: cited from earlier work
RMPCC's = details: cited from earlier work
[11] = cited from earlier work; remark: listed apart in the source
[12] = system: primary human hepatocytes, NIH3T3 fibroblasts, BSEP, CYP3A4; details: cited from earlier work
HepG2 cells [13] = details: cited from earlier work; remark: listed apart in the source
hLiMTs [14] = experiment: Combined HCI (HCS) and cellular ATP 3D assay in hLiMTs; details: Homo sapiens
[15] = human, in vivo; cited from earlier work
[16] = system: isolated mouse liver mitochondria; details: In vitro Assay; ref Porceddu 2012; cited from earlier work
[17] = system: HepG2 C3A spheroid, BSEP, Glu/Gal in HepG2 cells, bioactivation; details: In vitro Assay; ref Williams 2019; cited from earlier work
PHH spheroids = details: In vitro Assay; ref Vorrink 2018; cited from earlier work
HepG2 cells [18] = details: In vitro Assay; ref Persson 2013; cited from earlier work
HepG2 = system: HepG2; set-up: method as in Albrecht 2019; details: In vitro Assay; ref Albrecht 2019; cited from earlier work
PHH [19] = details: In vitro Assay; ref Albrecht 2019; cited from earlier work
[20] = In vitro Assay, ref O'Brien 2006
[21] = In vitro Assay, ref Khetani 2012
[22] = In vitro Assay, ref Proctor 2017

SMILES: O=P1(N(CCCl)CCCl)NCCCO1 (stereo not drawn) [cyclophosphamide, reference compound]
- DILI in vitro assay prediction, O'Brien (2006) (HepG2 cells [1]): +VE (key: +VE: lowest HCI endpoint IC50 (or in the absence of dose–response < 100 µM) < 30 × total human plasma exposure levels (Cmax.tot))
- Structural based (HCI) (HepG2 cells [1]): +VE
- Partition Hybrid HRM Score [2]: -VE
- Partition Hybrid HRM Score ≥4, Aleo (2019) [2]: -VE
- Partition Hybrid HRM Score ≥8, Aleo (2019) [2]: -VE
- Ro2 Hybrid HRM Score [2]: -VE
- Rule of Two hybrid HRM Score ≥3, Aleo (2019) [2]: -VE
- Rule of Two hybrid HRM Score ≥8, Aleo (2019) [2]: -VE
- Human plasma Cmax,u [3]: 114.400 µM
- HMPCC's (hu-MPCC): +VE
- DILI prediction HepaRG spheroids (HCS-MEC) (HepaRG spheroids [4]): +VE (key: +VE: MEC < 25 × Cmax.tot cut-off)
- HepaRG <10 uM All (HepaRG spheroids [4]): -ve
- HepaRG <100x Avg Cmaxu ATP (HepaRG spheroids [4]; human): +ve (key: +ve: <100x Avg Cmaxu)
- HepaRG <100x Avg Cmaxu All (HepaRG spheroids [4]; human): +ve (key: +ve: <100x Avg Cmaxu)
- HepaRG <100x Avg Cmaxu HCS (HepaRG spheroids [4]; human): +ve (key: +ve: <100x Avg Cmaxu)
- HepaRG Cmax max All (HepaRG spheroids [4]; human): +ve
- HepaRG Cmax min All (HepaRG spheroids [4]; human): -ve
- hLiMTs ATP <100uM (hLiMTs [5]): -VE
- hLiMTs/100uM, Proctor (2017) (hLiMTs [5]): -VE
- AC50 (HepaRG spheroids [6]; read-out: ATP endpoint AC50): 419 µM
- minimal effective concentration (HepaRG spheroids [6]; read-out: ATP endpoint MEC): 229 µM
- AC50 (HepaRG spheroids [6]; read-out: HCS endpoint AC50): 1860 µM
- minimal effective concentration (HepaRG spheroids [6]; read-out: HCS endpoint MEC): 340 µM
- DILI prediction hLiMTs (HCS-MEC) (hLiMTs [7]): +VE (key: +VE: MEC < 25 × Cmax.tot cut-off)
- hLiMTs <10 uM All (hLiMTs [7]): -ve
- hLiMTs <100x Avg Cmaxu ATP (hLiMTs [7]; human): +ve (key: +ve: <100x Avg Cmaxu)
- hLiMTs <100x Avg Cmaxu All (hLiMTs [7]; human): +ve (key: +ve: <100x Avg Cmaxu)
- hLiMTs <100x Avg Cmaxu HCS (hLiMTs [7]; human): +ve (key: +ve: <100x Avg Cmaxu)
- hLiMTs Cmax max All (hLiMTs [7]; human): +ve
- hLiMTs Cmax min All (hLiMTs [7]; human): -ve
- DILI +VE (5-8), DILI -VE (-4) ([8]; in vivo): +VE
- DILI severity category (Chen et al. [2016]) ([8]; in vivo): Less
- PHH ATP <100uM (PHH [9]): -VE
- PHH/100uM, Proctor (2017) (PHH [9]): -VE
- DILI Score (FDA) (1-8) [10]: 5
- DILI in vitro assay prediction, Xu (2008) (human hepatocytes): -VE
- Structural based (HCI) (human hepatocytes): -VE
- RMPCC's (RMPCC's): +VE
- Assigned DILI category ([11]; in vivo): 2
- Cellular toxicity (3T3 cells) [12]: -VE
- DILI in vitro assay prediction, Schadt (2015) [12]: -VE
- GSH adduct HML [12]: -VE
- Hepatocyte cellular toxicity [12]: -VE
- MitoTox 3T3 [12]: -VE
- TDI CYP3A4 [12]: -VE
- hBSEP inhibition [12]: -VE
- DILI in vitro assay prediction, Tolosa (2012) (HepG2 cells [13]): -VE
- Structural based (HCI) (HepG2 cells [13]): +VE
- AC50 (hLiMTs [14]; read-out: ATP endpoint AC50): 906 µM
- minimal effective concentration (hLiMTs [14]; read-out: ATP endpoint MEC): 613 µM
- AC50 (hLiMTs [14]; read-out: HCS endpoint AC50): 992 µM
- minimal effective concentration (hLiMTs [14]; read-out: HCS endpoint MEC): 236 µM
- Cmax [15]: 143 µM

SMILES: CN(C)CCCN1c2ccccc2CCc2ccccc21 [imipramine]
- Structural based (HCI) (HepG2 cells [1]; [20]): +VE
- in vitro data EC2<=1x Cmax [16]: -VE
- in vitro data EC20<=2uM [16]: +VE
- Ro2 Hybrid HRM Score ([2]; In vitro Assay, ref Aleo 2019): +VE
- HMPCC's (hu-MPCC; [21]): +VE
- Bayesian Machine Learning [17]: +VE
- hLiMTs ATP <20 x Cmax (PHH spheroids): +VE (IC20 < 20 × Cmax.tot cut-off)
- hLiMTs ATP <100uM (hLiMTs [5]; [22]): +VE (IC50 threshold of 100 µM)
- Structural based (HCI) (HepG2 cells [18]): +VE
- DILI +VE (5-8), DILI -VE (-4) ([8]; ref Chen 2016): +VE
- DILI severity category ([8]; ref Chen 2016): vLess-DILI-Concern
- PHH ATP <100uM (PHH [9]; [22]): +VE (IC50 threshold of 100 µM)
- RMPCC's (RMPCC's; [21]): -VE
- In vivo DILI ([11]; […]): +VE
- In vivo DILI ([11]; ref Aleo 2019): +VE
- In vivo DILI ([11]; ref Garside 2014): +VE
- In vivo DILI ([11]; ref Khetani 2012): +VE
- In vivo DILI ([11]; ref O'Brien 2006): +VE
- In vivo DILI ([11]; ref Persson 2013): +VE
- In vivo DILI ([11]; ref Porceddu 2012): +VE
- In vivo DILI ([11]; ref Proctor 2017): +VE
- In vivo DILI ([11]; ref Schadt 2015): -VE
- In vivo DILI ([11]; ref Tolosa 2012): +VE
- In vivo DILI ([11]; ref Vorrink 2018): +VE
- In vivo DILI ([11]; ref Williams 2019): +VE
- In vivo DILI ([11]; ref Xu 2008): +VE
- Structural based (HCI) (HepG2 cells [13]; In vitro Assay, ref Tolosa 2012): +VE

SMILES: CCCCC1C(=O)N(c2ccccc2)N(c2ccccc2)C1=O [phenylbutazone]
- Structural based (HCI) (HepG2 cells [1]; [20]): +VE
- in vitro data EC2<=1x Cmax [16]: +VE
- HMPCC's (hu-MPCC; [21]): +VE
- Cytotoxicity HepG2 48 hrs (HepG2): +VE
- RMPCC's (RMPCC's; [21]): +VE
- In vivo DILI ([11]; in vivo): +VE
- Cytotoxicity PHH 48 hrs (PHH [19]): +VE
